Laboratory results published in US20210046079A1, “COMBINATION THERAPY TO IMPROVE BRAIN FUNCTION OR PROMOTE NEUROGENESIS FOR TREATING NEURODEGENERATIVE CONDITIONS” (UNIVERSITY OF CENTRAL FLORIDA RESEARCH FOUNDATION, INC., priority 2016, published 2021).
Entries after “also recorded” stand apart in the source; their conditions may differ. Where a name gives a salt, the structure may show the parent alone.

What was measured:
[1] = system: βAPP; settings: Greig et al., U.S. Patent Pub. 2004/0024043 and 2004/0138282; cited from earlier work
[2] = system: 5xFAD mice; experiment: Radial water maze test of 5xFAD mice; assay type: in vivo; settings: for number of errors in the trial (memory), radial water maze: 5xFAD mice, compared to wild type
Description: B 6SJL-Tg(APPSwF1Lon,PSEN1*M146L*L286V)6799Vas/Mmjax transgenic (5xFAD) mice, which have 5 familial AD (FAD) mutant human genes, show pathological and behavioral signs of AD, including Aβdeposition at 2 months and progressive deficits in behavior. 5xFAD mice have successfully modeled behavior deficits seen in Alzheimer's disease in previous studies, and have been previously evaluated using the Morris water maze, open field test, and radial arm water maze. We purchased 2 males and 4 females heterozygous 5XFAD mice as breeders. We housed breeders in pairs of one male and 2 females. Gestation lasts 19-21 days. Pups (about 5-6 in each delivery) were weaned at (removed from breeding cage and separated) at 3 weeks of age. Tissue for genotyping was collected at the same time that ID numbers are applied. The genotyping was performed by PCR amplification of the SFAD gene. We used male 5xFAD mice (8months old) for this study.
The radial water maze test was performed using a maze with six arms (32 cm length and 19 cm width) radiated from the central circular region (36 cm diameter) placed in a circular pool (100 cm diameter). A clear round platform (9 cm diameter) was placed in one of the arms at 1.5 cm beneath the surface of the water, which was opacified with nontoxic white paint. The water was kept between 22-25° C. Surrounding the pool, a visual cue was placed at each end of the radial arms. Each session consists of four acquisition trials (T1-T4), followed by a 30-min delay interval and then a retention trial (T5). For each session, an escape platform was placed at the end of the goal arm, which was different between sessions. At the beginning of each trial, the mice were placed at the end of one of the remaining five non-goal arms. The mouse was positioned facing the wall, away from the center. Each trial lasts 60 seconds, during which an animal was allowed to swim in order to find the platform. The latency to locate the submerged platform and the number of entries to the non-goal arms were recorded as errors. […]

[3] = system: cholinesterase; settings: Greig et al., U.S. Patent Pub. 2004/0024043 and 2004/0138282; cited from earlier work
[4] = system: APP; settings: AD model animals and patients; cited from earlier work
[5] = system: neural stem cells; experiment: Cell counting after immunohistochemistry of postmortem brains (BrdU, βIII-tublin, GFAP); assay type: in vivo, mice
Description: Once mice reach the criterion for the pre-treatment behavioral testings, posiphen (25 mg/kg) was injected (s.c.) once a day for 7 consecutive days; followed by a combination of posiphen (25 mg/kg) and NBI-18 (0, 3, 10 mg/kg) was, injected (s.c.) once a day, for seven consecutive days; followed by another series of posiphen (25 mg/kg) injections (s.c.) once a day, for seven consecutive days. On the final two days of the combination injections, an injection of BrdU (100 mg/kg) was administered separately (s.c.) once per day.

[6] = Kidney or liver toxicity; settings: in vivo

| SMILES | βAPP levels in the brain [1] | number of errors in the trial (memory), radial water maze ([2]; Posiphen 25 mg/kg s.c. alone) | cholinesterase activity [3] | APP [4] | new neurons formed / neurogenesis in the brain ([5]; AD model mice, NBI-18 row: without Posiphen treatment, combination row: vs untreated AD model group) | dose at which the effect on stem cell proliferation is maxed out ([5]; brains of the animals used in the behavioral test) [mg/kg] | neural stem cell proliferation / number ([5]; brains of the animals used in the behavioral test, maleate) | number of errors in the trial (memory), radial water maze ([2]; NBI-18 3 mg/kg s.c. alone) | memory function / performance in memory tasks ([2]; AD model animals, summary statement, dose not stated) | dose range without detected kidney or liver toxicity [6] |
| --- | --- | --- | --- | --- | --- | --- | --- | --- | --- | --- |
| CN1CC[C@]2(C)c3cc(OC(=O)Nc4ccccc4)ccc3N(C)[C@H]12 [Posiphen, (+)-phenserine] | dramatically reduces βAPP levels in the brain | showed significant memory deficit compare to the wild type | lacks cholinesterase activity | reduction of APP |  |  |  |  |  |  |
| CN1Cc2nc(N3CCNCC3)ncc2C1=O [NBI-18, 6-Methyl-2-(1-piperazinyl)-6,7-dihydro-5H-pyrrolo[3,4-d]-pyrimidin-5-one maleate] |  |  |  |  | does not reflect the increase of new neurons formed | 3 | significantly increases endogenous neural stem cells; also recorded: increased stem cell proliferation | showed significant memory deficit compare to the wild type | does not help to improve memory function | up to 1000 mg/kg |
